In patent publication US12653809B2, “Urea, amide, and substituted heteroaryl compounds for CBL-B inhibition” (Nurix Therapeutics, Inc., priority 2019, dated 2026):
Like-named read-outs stand apart in the source and are kept apart here.

Target: T1, Cbl-b (truncated variant, UniProt number Q13191) (Homo sapiens, UniProt Q13191)
T1 construct: made in house
Assay: Cbl-b activity assay (TR-FRET, interaction of Cbl-b with UbcH5B-Ub)
Type: biochemical

[1] = high conditions: 100 mM NaCl, 60 nM Src kinase, 12 nM Cbl-b, read-out: Cbl-b activity IC50
[2] = Biological Example 1A, low or high conditions not stated, read-out: IC50 values in the Cbl-b inhibition assay of Biological Example 1A
[3] = low conditions: 50 mM NaCl, 30 nM Src kinase, 12 nM Cbl-b, read-out: Cbl-b activity IC50

T1 sequence (Q13191 36-427): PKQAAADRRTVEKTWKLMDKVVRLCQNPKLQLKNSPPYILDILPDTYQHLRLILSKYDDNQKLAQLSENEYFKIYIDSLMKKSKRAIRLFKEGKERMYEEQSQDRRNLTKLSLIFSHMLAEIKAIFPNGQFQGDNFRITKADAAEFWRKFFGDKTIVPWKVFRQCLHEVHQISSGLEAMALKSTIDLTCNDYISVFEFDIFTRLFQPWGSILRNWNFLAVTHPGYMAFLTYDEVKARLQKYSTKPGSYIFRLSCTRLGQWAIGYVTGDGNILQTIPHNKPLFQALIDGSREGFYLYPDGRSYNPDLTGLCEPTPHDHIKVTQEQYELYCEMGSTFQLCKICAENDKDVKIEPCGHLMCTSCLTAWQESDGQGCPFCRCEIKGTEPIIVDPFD

| Compound | IC50 [1] [nM] | IC50 [2] [nM] | IC50 [3] [nM] |
| --- | --- | --- | --- |
| Cc1ccc(-c2cc(-c3cccc([C@H](C)Sc4nncn4C)c3)on2)cc1 [Example 55, (S)-5-(3-(1-(4-methyl-4H-1,2,4-triazol-3-ylthio)ethyl)phenyl)-3-p-tolylisoxazole] | 1000 to 5000 | – | – |
| C[C@H](Sc1nncn1C)c1cccc(-c2cc(-c3cccc(Cl)c3)no2)c1 [Example 58, 3-[[(1S)-1-[3-[3-(3-chlorophenyl)-1,2-oxazol-5-yl]phenyl]ethyl]sulfanyl]-4-methyl-4H-1,2,4-triazole] | 1000 to 5000 | – | – |
| CN1CCC2(CC1)CN(C(=O)Nc1cccc(C3(Cc4nncn4C)COC3)c1)c1ncccc12 [Example 31, 1-methyl-N-(3-(3-((4-methyl-4H-1,2,4-triazol-3-yl)methyl)oxetan-3-yl)phenyl)spiro[piperidine-4,3′-pyrrolo[2,3-b]pyridine]-1′(2′H)-carboxamide] | 100 to 1000 | 100 to 1000 | – |
| C[C@H](Sc1nncn1C)c1cccc(-n2cc(-c3cccc(C#N)c3)nn2)c1 [Example 98, (S)-3-(1-(3-(1-(4-methyl-4H-1,2,4-triazol-3-ylthio)ethyl)phenyl)-1H-1,2,3-triazol-4-yl)benzonitrile] | ≥ 5000 | ≥ 5000 | – |
| C[C@H](Sc1nncn1C)c1cccc(-c2cc(-c3ccc(C#N)cc3)no2)c1 [Example 61, (S)-4-(5-(3-(1-(4-methyl-4H-1,2,4-triazol-3-ylthio)ethyl)phenyl)isoxazol-3-yl)benzonitrile] | 1000 to 5000 | – | – |
| C[C@H](Cc1nncn1C)c1cccc(NC(=O)N2C[C@H](CO)[C@@H](C)C2)c1 (relative stereo) [Example 17, (3R*,4R*)-3-(hydroxymethyl)-4-methyl-N-(3-((R)-1-(4-methyl-4H-1,2,4-triazol-3-yl)propan-2-yl)phenyl)pyrrolidine-1-carboxamide] | 1000 to 5000 | 1000 to 5000 | – |
| C[C@H](Cc1nncn1C)c1cccc(NC(=O)N2CCc3cccnc32)c1 [Example 16, (R)—N-(3-(1-(4-methyl-4H-1,2,4-triazol-3-yl)propan-2-yl)phenyl)-2,3-dihydro-1H-pyrrolo[2,3-b]pyridine-1-carboxamide] | 100 to 1000 | 100 to 1000 | – |
| C[C@H](Sc1nncn1C)c1cccc(NC(=O)N2Cc3cnn(C)c3C2)c1 [Example 46, (S)-1-methyl-N-(3-(1-((4-methyl-4H-1,2,4-triazol-3-yl)thio)ethyl)phenyl)-4,6-dihydropyrrolo[3,4-c]pyrazole-5(1H)-carboxamide] | 1000 to 5000 | 1000 to 5000 | – |
| COc1ccc(-c2cnn(-c3cccc([C@H](C)Sc4nncn4C)c3)n2)cc1 [Example 74, (S)-4-(4-methoxyphenyl)-2-(3-(1-((4-methyl-4H-1,2,4-triazol-3-yl)thio)ethyl)phenyl)-2H-1,2,3-triazole] | 100 to 1000 | 100 to 1000 | – |
| CC(Sc1nncn1C)c1cccc(C(=O)Nc2cccc(C(F)(F)F)n2)c1 (centres unmarked) [Example 1, 3-(1-((4-methyl-4H-1,2,4-triazol-3-yl)thio)ethyl)-N-(6-(trifluoromethyl)pyridin-2-yl)benzamide] | – | ≥ 5000 | ≥ 5000 |
| CNC(=O)c1cccc(-c2cnn(-c3cccc([C@H](C)Sc4nncn4C)c3)n2)c1 [Example 93, (S)—N-methyl-3-(2-(3-(1-(4-methyl-4H-1,2,4-triazol-3-ylthio)ethyl)phenyl)-2H-1,2,3-triazol-4-yl)benzamide] | 1000 to 5000 | 1000 to 5000 | – |
| C[C@H](Sc1nncn1C)c1cccc(-c2cc(-c3ccc(C(=O)O)cc3)no2)c1 [Example 63, 4-(5-{3-[(1S)-1-[(4-methyl-4H-1,2,4-triazol-3-yl)sulfanyl]ethyl]phenyl}-1,2-oxazol-3-yl)benzoic acid] | ≥ 5000 | ≥ 5000 | – |
| C[C@H](Sc1nncn1C)c1cccc(-n2cc(-c3cccc(C(=O)O)c3)nn2)c1 [Example 91, (S)-3-(1-(3-(1-(4-methyl-4H-1,2,4-triazol-3-ylthio)ethyl)phenyl)-1H-1,2,3-triazol-4-yl)benzoic acid] | ≥ 5000 | ≥ 5000 | – |
| C[C@H](Sc1nncn1C)c1cccc(NC(=O)NCc2ccccc2)c1 [Example 5, (S)-1-benzyl-3-(3-(1-((4-methyl-4H-1,2,4-triazol-3-yl)thio)ethyl)phenyl)urea] | – | – | ≥ 5000 |

The remaining lines, values ahead:

| IC50 [1] [nM] | IC50 [2] [nM] | IC50 [3] [nM] | Compound |
| --- | --- | --- | --- |
| ≥ 5000 | – | – | C[C@H](Sc1nncn1C)c1ccnc(NC(=O)Nc2ccccn2)c1 [Example 121, (S)-1-(4-(1-((4-methyl-4H-1,2,4-triazol-3-yl)thio)ethyl)pyridin-2-yl)-3-(pyridin-2-yl)urea] |
| ≥ 5000 | – | – | C[C@H](Sc1nncn1C)c1cccc(NC(=O)N2CCc3nocc3C2)c1 [Example 125, (S)—N-(3-(1-((4-methyl-4H-1,2,4-triazol-3-yl)thio)ethyl)phenyl)-6,7-dihydroisoxazolo[4,3-c]pyridine-5(4H)-carboxamide] |
| ≥ 5000 | ≥ 5000 | – | C[C@@H](Sc1nncn1C)c1cccc(-n2ncc(-c3ccccc3)n2)c1 [Example 100, (R)-2-(3-(1-((4-methyl-4H-1,2,4-triazol-3-yl)thio)ethyl)phenyl)-4-phenyl-2H-1,2,3-triazole] |
| ≥ 5000 | – | – | C[C@H](Sc1nncn1C)c1cccc(NC(=O)N2CC(C(=O)N3CCC(O)CC3)C2)c1 [Example 140, (S)-3-(4-hydroxypiperidine-1-carbonyl)-N-(3-(1-((4-methyl-4H-1,2,4-triazol-3-yl)thio)ethyl)phenyl)azetidine-1-carboxamide] |
| ≥ 5000 | – | – | C[C@H](Sc1nncn1C)c1cccc(NC(=O)N2CCCC2)c1 [Example 151, N-[3-[(1S)-1-[(4-methyl-4H-1,2,4-triazol-3-yl)sulfanyl]ethyl]phenyl]pyrrolidine-1-carboxamide] |
| – | < 100 | < 100 | CC(Sc1nncn1C)c1cccc(C(=O)Nc2cc3ccccc3cn2)c1 (centres unmarked) [Example 122, N-(isoquinolin-3-yl)-3-(1-((4-methyl-4H-1,2,4-triazol-3-yl)thio)ethyl)benzamide] |
| 100 to 1000 | – | – | C[C@H](Cc1nncn1C)c1cccc(-c2n[nH]c3c(N4CC(O)C4)cc(C(F)(F)F)nc23)c1 [Example 110, (R)-1-(3-(3-(1-(4-methyl-4H-1,2,4-triazol-3-yl)propan-2-yl)phenyl)-5-(trifluoromethyl)-1H-pyrazolo[4,3-b]pyridin-7-yl)azetidin-3-ol] |
| ≥ 5000 | – | – | COc1cc(N2CCOCC2)ccc1NC(=O)Nc1cccc([C@H](C)Sc2nncn2C)c1 [Example 148, (S)-1-(2-methoxy-4-morpholinophenyl)-3-(3-(1-((4-methyl-4H-1,2,4-triazol-3-yl)thio)ethyl)phenyl)urea] |
| 100 to 1000 | – | – | C[C@H](Sc1nncn1C)c1cccc(-c2n[nH]c3ccccc23)c1 [Example 107, (S)-3-(3-(1-((4-methyl-4H-1,2,4-triazol-3-yl)thio)ethyl)phenyl)-1H-indazole] |
| ≥ 5000 | – | – | CCn1cc(CN(C)C(=O)Nc2cccc([C@H](C)Sc3nncn3C)c2)cn1 [Example 152, (S)-1-((1-ethyl-1H-pyrazol-4-yl)methyl)-1-methyl-3-(3-(1-((4-methyl-4H-1,2,4-triazol-3-yl)thio)ethyl)phenyl)urea] |
| 100 to 1000 | 100 to 1000 | – | C[C@H](Sc1nncn1C)c1cccc(-n2ncc(-c3ccccc3)n2)c1 [Example 99, (S)-2-(3-(1-((4-methyl-4H-1,2,4-triazol-3-yl)thio)ethyl)phenyl)-4-phenyl-2H-1,2,3-triazole] |
